Reference: patent publication US11351178B2, “Selective HDAC6 inhibitors” (ITALFARMACO S.P.A., priority 2017, dated 2022)

How the values were obtained:
recombinant human HDAC6 = target: T1, recombinant human HDAC6 (Homo sapiens, UniProt Q9UBN7); assay: Enzymatic screening on recombinant human HDAC6; format: biochemical; details: Table 2; read-out: HDAC6 IC50
T1 sequence (Q9UBN7 1-1215): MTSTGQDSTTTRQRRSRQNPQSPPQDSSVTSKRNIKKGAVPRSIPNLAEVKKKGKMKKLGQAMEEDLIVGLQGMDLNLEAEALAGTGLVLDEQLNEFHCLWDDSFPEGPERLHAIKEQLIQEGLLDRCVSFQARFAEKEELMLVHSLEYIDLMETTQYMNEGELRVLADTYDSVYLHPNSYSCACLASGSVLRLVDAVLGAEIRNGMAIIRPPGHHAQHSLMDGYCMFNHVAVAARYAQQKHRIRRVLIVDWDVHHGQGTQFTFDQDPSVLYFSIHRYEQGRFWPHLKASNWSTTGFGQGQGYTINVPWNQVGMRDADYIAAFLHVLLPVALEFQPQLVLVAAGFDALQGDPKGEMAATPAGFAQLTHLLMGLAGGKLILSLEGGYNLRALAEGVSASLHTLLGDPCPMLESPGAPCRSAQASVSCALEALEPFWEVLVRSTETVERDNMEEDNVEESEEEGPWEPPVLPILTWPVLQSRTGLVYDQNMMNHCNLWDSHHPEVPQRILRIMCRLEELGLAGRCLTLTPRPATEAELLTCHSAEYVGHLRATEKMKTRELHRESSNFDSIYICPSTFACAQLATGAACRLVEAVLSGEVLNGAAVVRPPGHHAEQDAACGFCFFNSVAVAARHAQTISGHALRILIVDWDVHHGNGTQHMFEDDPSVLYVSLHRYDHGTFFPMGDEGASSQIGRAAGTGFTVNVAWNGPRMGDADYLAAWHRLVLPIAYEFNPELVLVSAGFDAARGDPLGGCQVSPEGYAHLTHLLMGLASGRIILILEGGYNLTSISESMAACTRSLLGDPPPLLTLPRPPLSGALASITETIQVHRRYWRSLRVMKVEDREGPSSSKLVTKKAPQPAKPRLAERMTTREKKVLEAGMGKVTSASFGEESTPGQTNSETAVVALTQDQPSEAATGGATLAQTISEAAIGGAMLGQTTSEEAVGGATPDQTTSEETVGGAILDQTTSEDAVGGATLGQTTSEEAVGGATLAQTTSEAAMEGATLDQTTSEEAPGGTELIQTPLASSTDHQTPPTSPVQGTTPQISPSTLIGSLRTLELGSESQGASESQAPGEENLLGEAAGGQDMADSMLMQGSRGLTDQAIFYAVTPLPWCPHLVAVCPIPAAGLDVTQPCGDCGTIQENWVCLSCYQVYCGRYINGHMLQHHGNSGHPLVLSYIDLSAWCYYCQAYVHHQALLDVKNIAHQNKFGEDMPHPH
How it was run: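 Recombinant human HDAC isoforms were incubated with compound at 30 °C for isoform-specific times. Fluor de Lys, Fluor de Lys-Green or trifluoroacetyl-lysine substrate in Tris-HCl pH 8 buffer with NaCl, Tween-20 and glycerol was then added, followed by reaction at 30 °C.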

[1] = tested on: B 697 promyelocytic cell line; assay: Cytotoxicity on 697 cell line (CellTiter 96); format: cell-based; details: 72 hours incubation, read-out: 697 TOXICITY
How it was run: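 Mitochondrial-function readout (CellTiter 96 Aqueous One) after 72 h compound exposure, begun 24 h post-seeding. Dose ranges: 697 cells, 1 to 10000 nM at 2×10^4 cells/well; PBMCs, 1.5 to 10000 nM at 5×10^5 cells/well.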

[2] = tested on: peripheral blood mononuclear cells (PBMCs); assay: Cytotoxicity on PBMCs (CellTiter 96); format: cell-based; details: PBMC, 72 h; read-out: PBMC TOXICITY (72 h)
Procedure: Cytotoxic activity was evaluated on B 697 […] cell line for all synthesized compounds and on peripheral blood mononuclear cells (PBMCs) for compounds showing a good potency/selectivity profile.
Cells were seeded in plate (2×10^4 cells per well for 697, 5×10^5 cells per well for PBMCs). The test compounds (concentrations from 1.5 nM to 10000 nM for PBMCs and from 1 nM to 10000 nM for 697) were added after 24 hours and incubated 72 hours. The molecules cytotoxic activity was evaluated using CellTiter 96© Aqueous One Solution Cell Proliferation Assay (Promega), which measures the mitochondria function, following the manufacturer's instructions.

[3] = Stability to Phase I metabolism in rat S9 liver fraction; format: in vitro ADME; details: after 90 min, 37° C.
How it was run: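 Phase I stability in human and rat hepatic S9 at 37 °C, sampled up to 90 min. Samples were stopped with acidified acetonitrile on ice, then quantified by HPLC-UV or LC-MS/MS.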

[4] = Stability to Phase I metabolism in human S9 liver fraction; format: in vitro ADME
Procedure: Test compounds were incubated in rat and human liver S9 fraction at 37° C. up to 90 minutes in order to evaluate their stability to Phase I metabolism by hepatic enzymes. […] The reaction was stopped placing samples on ice bath and adding acidified acetonitrile. After centrifugation (10 minutes at 14000 rpm) an aliquot of the supernatant was diluted water, filtered with 0.45 μm regenerated cellulose syringe filters and injected in HPLC-UV or in LC-MS/MS. The percentages of the amount remaining at the various incubation times with respect to the initial amount were calculated. The intrinsic clearance was also calculated.

Stability in rat plasma = format: in vitro ADME; details: after 4 hours, 37° C.
How it was run: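 Compounds incubated at 37° C in rat or human plasma at 50 μM (UV/HPLC) or 1 or 2 μM (LC-MS/MS) for 0–4 h. Reaction stopped with acidified acetonitrile on ice; percent remaining versus initial amount and plasma half-life calculated.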

[5] = Stability in human plasma; format: in vitro ADME; details: after 4 hours, 37° C.
Procedure: In order to evaluate the stability to circulating enzymes, test compounds were incubated in human and rat plasma at 37° C. in a thermostated oscillating bath. Each test compound was incubated at μM (50 μM when the samples were analysed by UV/HPLC, 1 or 2 μM when the samples were analysed by LC-MS/MS) concentration for 0, 15, 30 min and 1, 2 and 4 hours. The reaction was stopped placing tubes on ice bath and adding acidified acetonitrile. After centrifugation for 10 minutes at 14000 rpm, an aliquot of the supernatant was diluted with water, filtered with 0.45 μm syringe filters and injected in HPLC-UV or in LC-MS/MS. The percentages of amount remaining at the various times of incubation with respect to initial amount were calculated. The half-life in plasma was also calculated.

SMILES | IC50 (recombinant human HDAC6) | residual percentage in rat S9 fraction [3] | residual percentage in human S9 fraction ([4]; human, 90 min, pH 7.4) | residual percentage in rat plasma (Stability in rat plasma) | residual percentage in human plasma [5] | IC50 [1] | IC50 [2] | residual percentage in human S9 fraction ([4]; human liver S9 fraction, after 90 min, 37° C.)
CN(C)S(=O)(=O)c1cccc(-c2nnc(Cc3ccc(C(=O)NO)cc3)o2)c1 [comp. 3, 4-((5-(3-(N,N-dimethylsulfamoyl)phenyl)-1,3,4-oxadiazol-2-yl)methyl)-N-hydroxybenzamide] | 0.011 µM | 66% | 93% | 79% | 100% | 2.88 µM | 0.735 µM | 
O=C(NO)c1cc(F)c(Cn2nnc(-c3ncccn3)n2)c(F)c1 [comp. 7] |  | 96% |  | 77% | 93% | 4.19 µM | 10 µM | 89%
Cn1c(Sc2c(F)cc(C(=O)NO)cc2F)nnc1-c1ccccn1 [comp. 14, 3,5-difluoro-N-hydroxy-4-((4-methyl-5-(pyridin-2-yl)-4H-1,2,4-triazol-3-yl)thio)benzamide] | 0.008 µM | 88% | 87% | 38% | 77% | 3.94 µM | > 10 µM | 
Cn1c(Sc2c(F)cc(C(=O)NO)cc2F)nnc1-c1ccc(CN2CCCCC2)o1 [comp. 212, 3,5-difluoro-4-[[4-methyl-5-[5-(1-piperidylmethyl)-2-furyl]-1,2,4-triazol-3-yl]sulfanyl]benzenecarbohydroxamic acid] | 0.006 µM | 60% | 75% | 81% | 83% | 15.4 µM |  | 
O=C(NO)c1ccc(Cn2nnc(-c3ccccc3)n2)cc1 [comp. 214, 4-[(5-phenyltetrazol-2-yl)methyl]benzenecarbohydroxamic acid] | 0.003 µM | 9% | 73% | 60% | 92% | 0.409 µM |  | 

Continued by falling IC50 (recombinant human HDAC6), values first:

IC50 (recombinant human HDAC6) | residual percentage in rat S9 fraction [3] | residual percentage in human S9 fraction ([4]; human, 90 min, pH 7.4) | residual percentage in rat plasma (Stability in rat plasma) | residual percentage in human plasma [5] | SMILES | IC50 [1] | IC50 [2] | residual percentage in human S9 fraction ([4]; human liver S9 fraction, after 90 min, 37° C.)
0.013 µM | 58% | 63% | 80% | 97% | CCN(CC)Cc1cc(-c2nnc(Sc3c(F)cc(C(=O)NO)cc3F)n2C)c(C)o1 [comp. 213, 4-[[5-[5-(diethylaminomethyl)-2-methyl-3-furyl]-4-methyl-1,2,4-triazol-3-yl]sulfanyl]-3,5-difluoro-benzenecarbohydroxamic acid] | 15.4 µM |  | 
0.011 µM | 84% | 100% | 69% | 77% | CN1CCN(Cc2ccc(-c3nnc(Sc4ccc(C(=O)NO)cc4)n3C)o2)CC1 [comp. 209, 4-[[4-methyl-5-[5-[(4-methylpiperazin-1-yl)methyl]-2-furyl]-1,2,4-triazol-3-yl]sulfanyl]benzenecarbohydroxamic acid] | 15.4 µM |  | 
0.004 µM | 88% | 101.7% | 98.5% | 94.3% | O=C(NO)c1ccc(Cn2nnnc2-c2ccccn2)cc1 [comp. 20, N-hydroxy-4-((5-(pyridin-2-yl)-1H-tetrazol-1-yl)methyl)benzamide] | 1.12 µM | 2 µM | 
0.004 µM | 81% | 81% | 81% | 87% | CCc1oc(-c2nnc(Sc3c(F)cc(C(=O)NO)cc3F)n2C)cc1CN1CCCC1 [comp. 208, 4-[[5-[5-ethyl-4-(pyrrolidin-1-ylmethyl)-2-furyl]-4-methyl-1,2,4-triazol-3-yl]sulfanyl]-3,5-difluoro-benzenecarbohydroxamic acid] | 15.4 µM |  | 
